From US5760016A, “Use of mono-3,6-anhydrocyclodextrins for solubilizing a hydrophobic compound and for controlling the purity of an enantiomer and process for the preparation of these cyclodextrins” (priority 1993, dated 1998)
Converted amounts (≈) assume the structure as drawn. Values belong to the compound of their own block, whether it stands above or below them.

Columns and labels:
[1] = background; cited from earlier work
[2] = Hemolysis of human erythrocytes by the cyclodextrin derivative; format: cell-based; conditions: erythrocytes; 5 mmole/l, 0.4 ml of human erythrocyte suspension, pH 7.4, 30 min, 37° C.; read-out: hemolysis percentage
[3] = system: human erythrocytes; assay: as above; format: cell-based; conditions: 50 mmole/l
[4] = physchem; conditions: water
[5] = Solubility in water of cyclodextrins
[6] = Solubility of prednisolone in water, alone or in the presence of a cyclodextrin; format: physicochemical
Procedure: 10 μmole of mono-3,6-anhydrocyclomaltoheptaose prepared in example 1 are dissolved in 1 ml of pure water (apyrogenic water for injections) and addition takes place of 5 μmole of prednisolone in the form of a 50 mmole/l concentrated solution in acetone. The acetone is eliminated under nitrogen bubbling and the solution lyophilized.
The residual solid, which contains 10 μmole of the cyclodextrin derivative and 5 μmole of prednisolone, is redissolved in the minimum of water at 25° C.

[7] = 25° C., without cyclodextrin; cited from earlier work

SMILES: COC[C@H]1O[C@@H]2O[C@H]3[C@H](O)[C@@H](OC)[C@@H](O[C@H]4[C@H](O)[C@@H](OC)[C@@H](O[C@H]5[C@H](O)[C@@H](OC)[C@@H](O[C@H]6[C@H](O)[C@@H](OC)[C@@H](O[C@H]7[C@H](O)[C@@H](OC)[C@@H](O[C@H]8[C@H](O)[C@@H](OC)[C@@H](O[C@H]1[C@H](O)[C@H]2OC)O[C@@H]8COC)O[C@@H]7COC)O[C@@H]6COC)O[C@@H]5COC)O[C@@H]4COC)O[C@@H]3COC [2,6-dimethyl-β-cyclodextrin]
- solubilizing properties for hydrophobic organic compounds [1]: good properties of solubilizing hydrophobic, organic compounds

- solubility [4]: 520 mg/mL (≈ 466 mM)
- solubility in water relative to .chi. and γ-cyclodextrins ([5]; ratio to .chi. and γ-cyclodextrins): at least twice
- solubility in water relative to the original cyclodextrin ([5]; ratio to original cyclodextrin (18 g/l), 25° C.): ~30 times
SMILES: OC[C@H]1O[C@@H]2O[C@H]3[C@H](O)[C@@H](O)[C@@H](O[C@H]4[C@H](O)[C@@H](O)[C@@H](O[C@H]5[C@@H]6OC[C@H]5O[C@H](O[C@H]5[C@H](O)[C@@H](O)[C@@H](O[C@H]7[C@H](O)[C@@H](O)[C@@H](O[C@H]8[C@H](O)[C@@H](O)[C@@H](O[C@H]1[C@H](O)[C@H]2O)O[C@@H]8CO)O[C@@H]7CO)O[C@@H]5CO)[C@@H]6O)O[C@@H]4CO)O[C@@H]3CO [mono-3,6-anhydrocyclomaltoheptaose]
- hemolysis at 0.5 h, 5000 µM [2]: 0%
- hemolytic properties at much higher concentrations [3]: no hemolysis detectable

SMILES: C[C@]12C=CC(=O)C=C1CC[C@@H]1[C@@H]2[C@@H](O)C[C@@]2(C)[C@H]1CC[C@]2(O)C(=O)CO [prednisolone]
- solubility ([6]; 25° C., in the presence of mono-3,6-anhydrocyclomaltoheptaose at 200 mmole/l, read-out: maximum prednisolone solubility in water): 100 mM
- solubility ([6]; prednisolone solubility in the presence of β-cyclodextrin, same conditions, with β-cyclodextrin): 9 mM
- solubility in water of prednisolone [7]: 0.25 mg/mL

SMILES: OC[C@H]1O[C@@H]2O[C@H]3[C@H](O)[C@@H](O)[C@@H](O[C@H]4[C@H](O)[C@@H](O)[C@@H](O[C@H]5[C@H](O)[C@@H](O)[C@@H](O[C@H]6[C@H](O)[C@@H](O)[C@@H](O[C@H]7[C@H](O)[C@@H](O)[C@@H](O[C@H]8[C@H](O)[C@@H](O)[C@@H](O[C@H]1[C@H](O)[C@H]2O)O[C@@H]8CO)O[C@@H]7CO)O[C@@H]6CO)O[C@@H]5CO)O[C@@H]4CO)O[C@@H]3CO [β-cyclodextrin, cyclomaltoheptaose]
- hemolysis at 0.5 h, 5000 µM [2]: 50%
